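Dose response: 5 concentrations. Exposure: 48 h. Format: 96-well plates. Endpoint: linear interpolation; highest concentration if not reached. GI50: concentration for 50% inhibition of growth.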 Calls of active or inactive are those of the source. Rule as the data show it: active = GI50 up to about 1.1 µM and inactive = higher.
How the values were obtained:
Assay in all cases: NCI tumour cell line growth inhibition, 48 h
OVCAR-3 = test system: OVCAR-3
MDA-MB-231 = test system: MDA-MB-231
HL-60 = test system: HL-60
SNB-75 = test system: SNB-75
SNB-19 = test system: SNB-19
SK-MEL-28 = test system: SK-MEL-28
MOLT-4 = test system: MOLT-4
K562 = test system: K562
LOX IMVI = test system: LOX IMVI
U-251 = test system: U-251
HT-29 = test system: HT-29
A549 = test system: A549
SW-620 = test system: SW-620
SK-OV-3 = test system: SK-OV-3
HOP-62 = test system: HOP-62
IGROV-1 = test system: IGROV-1
OVCAR-4 = test system: OVCAR-4
T47D = test system: T47D
NCI-H522 = test system: NCI-H522
HCC 2998 = test system: HCC 2998

Measured: GI50

COC(=O)c1c(O)ccc2c1c1c(n2Cc2cc(OC)cc(OC)c2)C(=O)c2ccccc2C1
inactive: OVCAR-3 43.2 µM | MDA-MB-231 24 µM | HL-60 > 100 µM | SNB-75 4.7 µM | SNB-19 > 100 µM | SK-MEL-28 16.1 µM | MOLT-4 58.1 µM | K562 66.8 µM | LOX IMVI 33.1 µM | U-251 47.8 µM | HT-29 11.7 µM | A549 36.2 µM | SW-620 51.8 µM | SK-OV-3 29 µM | HOP-62 > 100 µM | IGROV-1 30.3 µM | OVCAR-4 11.2 µM

O=S1(=O)OCCCOS(=O)(=O)C1Br
inactive: OVCAR-3 > 100 µM | SNB-75 > 100 µM | SNB-19 > 100 µM | SK-MEL-28 > 100 µM | MOLT-4 > 100 µM | LOX IMVI > 100 µM | U-251 > 100 µM | HT-29 > 100 µM | A549 > 100 µM | T47D > 100 µM | SW-620 > 100 µM | SK-OV-3 > 100 µM | NCI-H522 > 100 µM | HOP-62 > 100 µM | HCC 2998 > 100 µM | OVCAR-4 > 100 µM

CC(C)(C)c1cc(CC2C(=O)c3ccccc3C2=O)cc(C(C)(C)C)c1O
inactive: OVCAR-3 2.89 µM | MDA-MB-231 2.59 µM | HL-60 2.54 µM | SNB-19 2.94 µM | MOLT-4 2.5 µM | K562 3.13 µM | LOX IMVI 3.81 µM | U-251 3.87 µM | HT-29 3.13 µM | A549 8.59 µM | SW-620 2.51 µM | SK-OV-3 2.44 µM | NCI-H522 2.62 µM | HOP-62 2.54 µM | IGROV-1 5.45 µM | OVCAR-4 4.08 µM

CC(=O)Oc1c(OC(C)C)cc(=O)n2ccsc12
inactive: OVCAR-3 78.2 µM | MDA-MB-231 > 100 µM | HL-60 18.5 µM | SNB-75 > 100 µM | SNB-19 > 100 µM | SK-MEL-28 > 100 µM | MOLT-4 43.9 µM | K562 42.8 µM | LOX IMVI > 100 µM | U-251 > 100 µM | HT-29 > 100 µM | A549 > 100 µM | SW-620 82 µM | SK-OV-3 > 100 µM | NCI-H522 42.2 µM | HOP-62 > 100 µM | IGROV-1 92.7 µM | HCC 2998 > 100 µM | OVCAR-4 > 100 µM

COC[C@@H]1[C@H]2OC(C)(C)O[C@H]2C(=O)N1C(=O)c1ccc(OC)cc1
inactive: OVCAR-3 > 100 µM | HL-60 > 100 µM | SNB-75 > 100 µM | SNB-19 > 100 µM | SK-MEL-28 > 100 µM | MOLT-4 > 100 µM | K562 > 100 µM | LOX IMVI > 100 µM | U-251 > 100 µM | HT-29 > 100 µM | A549 > 100 µM | SW-620 > 100 µM | SK-OV-3 > 100 µM | NCI-H522 > 71.8 µM | HOP-62 > 100 µM | IGROV-1 > 100 µM | HCC 2998 > 100 µM | OVCAR-4 > 100 µM

Oc1ccc(N=C2CCC(=C(c3ccccc3)c3ccc(Nc4ccc(O)cc4)cc3)CC2)cc1
inactive: MDA-MB-231 75.5 µM | SNB-19 78.5 µM | SK-MEL-28 > 100 µM | MOLT-4 83.6 µM | K562 > 100 µM | LOX IMVI 73.3 µM | U-251 47.3 µM | HT-29 48.8 µM | A549 83.9 µM | SW-620 58.1 µM | SK-OV-3 62.1 µM | NCI-H522 47 µM | HCC 2998 64.3 µM | OVCAR-4 86.5 µM

O=c1ccc2ccccc2c2ccccc12
inactive: OVCAR-3 3.4 µM | HL-60 2.96 µM | SNB-75 2.94 µM | SNB-19 2.82 µM | SK-MEL-28 5.46 µM | MOLT-4 3.78 µM | K562 3.7 µM | LOX IMVI 1.91 µM | U-251 2.34 µM | HT-29 2.93 µM | A549 13.8 µM | SW-620 3.3 µM | SK-OV-3 3.6 µM | NCI-H522 4.37 µM | HOP-62 3.24 µM | IGROV-1 6.12 µM | HCC 2998 9.64 µM | OVCAR-4 8.07 µM

Cc1ccc(-c2c(C#N)c(O)n(NS(=O)(=O)c3ccccc3)c(=O)c2C#N)cc1
inactive: MDA-MB-231 > 100 µM | HL-60 > 100 µM | SNB-75 > 100 µM | SNB-19 > 100 µM | SK-MEL-28 > 100 µM | MOLT-4 > 100 µM | K562 > 100 µM | LOX IMVI > 100 µM | U-251 > 100 µM | HT-29 > 100 µM | A549 > 100 µM | SW-620 > 100 µM | SK-OV-3 > 100 µM | NCI-H522 > 100 µM | HOP-62 > 100 µM | IGROV-1 > 100 µM | HCC 2998 > 100 µM | OVCAR-4 > 100 µM

O=c1[nH]c(=O)n(C2CC(O)C(CO)O2)cc1C#Cc1ccc(C(F)(F)F)cc1 (stereo unspecified)
inactive: OVCAR-3 > 100 µM | HL-60 > 100 µM | SNB-75 61.5 µM | SNB-19 > 100 µM | SK-MEL-28 > 100 µM | MOLT-4 > 100 µM | K562 > 100 µM | LOX IMVI > 100 µM | U-251 > 100 µM | HT-29 > 100 µM | A549 > 100 µM | SW-620 > 100 µM | SK-OV-3 > 100 µM | NCI-H522 > 100 µM | HOP-62 > 100 µM | IGROV-1 > 100 µM | HCC 2998 > 100 µM | OVCAR-4 > 100 µM

Cc1cccc(/C=N/C23CC4CC(CC(C4)C2)C3)c1
inactive: OVCAR-3 > 100 µM | HL-60 > 100 µM | SNB-75 > 100 µM | SNB-19 > 100 µM | SK-MEL-28 > 100 µM | MOLT-4 > 100 µM | K562 > 100 µM | LOX IMVI > 100 µM | U-251 > 100 µM | HT-29 > 100 µM | A549 > 100 µM | SW-620 > 100 µM | SK-OV-3 > 100 µM | NCI-H522 > 100 µM | HOP-62 > 100 µM | IGROV-1 > 100 µM | HCC 2998 > 100 µM | OVCAR-4 > 100 µM

O=S(=O)(SC1=NCCN1)c1cccc2ccccc12
inactive: OVCAR-3 44 µM | MDA-MB-231 22.1 µM | HL-60 > 10 µM | SNB-75 13.8 µM | SNB-19 28.7 µM | SK-MEL-28 47 µM | MOLT-4 27.7 µM | K562 24 µM | LOX IMVI 43.8 µM | U-251 35.1 µM | HT-29 28.7 µM | A549 22.8 µM | SW-620 32.7 µM | SK-OV-3 19.5 µM | NCI-H522 14.4 µM | HOP-62 31.3 µM | IGROV-1 21.7 µM | HCC 2998 > 10 µM | OVCAR-4 26.2 µM

Source: ChEMBL document CHEMBL1201862, “PubChem BioAssay data set” (2004)
